Assay [1] relates to Wnt activity (Wnt-responsive Sp5 promoter-luciferase reporter in SW480 cells). The assay is described as follows: Wnt activity screening assay: Sp5-Luc reporter gene in SW480 colon carcinoma cells. Type of assay: cell-based. Conditions: Homo sapiens. The essentials:
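IC50 values come from variable-slope four-parameter fits of luciferase signal normalized to DMSO wells. Stable Sp5-Luc reporter SW480 colon carcinoma cells were exposed to compounds in a 3-fold dilution series (source plates from 10 mM stock) for forty-two hours at 37 °C.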
On the technique in general: Reporter assays use an easily measured gene product as a stand-in for the process of interest.

Assay [2] deals with primary human fibroblasts derived from IPF patients (LL29 cells). In words: Inhibition of fibrotic process: αSMA staining in TGF-β1-treated primary human fibroblasts from IPF patients (LL29 cells). Type of assay: cell-based. Conditions: Fibroblast, 96 h, LL29 cells treated with TGF-β1 (20 ng/mL), 4 days, 11-point dose-response from 10 μM to 1.87 nM, read-out: Inhibition of fibrosis EC50. From the text: The above synthesized compounds were screened using primary human fibroblasts (derived from IPF patients) treated with TGF-β1 to determine their ability to inhibit the fibrotic process.
Primary human fibroblasts derived from IPF patients (LL29 cells) [^1Xiaoqiu Liu, et. al., “Fibrotic Lung Fibroblasts Show Blunted Inhibition by cAMP Due to Deficient cAMP Response Element-Binding Protein Phosphorylation”, Journal of Pharmacology and Experimental Therapeutics (2005), 315(2), 678-687; ^2Watts, K. L., et. al., “RhoA signaling modulates cyclin D1 expression in human lung fibroblasts; implications for idiopathic pulmonary fibrosis”, Respiratory Research (2006), 7(1), 88] were obtained from American Type Culture Collection (ATCC) and expanded in F12 medium supplemented with 15% Fetal Bovine Serum and Penicillin/Streptomycin.
Each compound was dissolved in DMSO as a 10 mM stock and used to prepare compound source plates. Serial dilution (1:2, 11-point dose-response curves from 10 μM to 1.87 nM) and compound transfer was performed using the ECHO 550 (Labcyte, Sunnyvale, Calif.) into 384-well clear bottom assay plates (Greiner Bio-One) with appropriate DMSO backfill for a final DMSO concentration of 0.1%. LL29 cells were plated at 1,500 cells/well in 80 μl/well F12 medium supplemented with 1% Fetal Bovine Serum. One hour after addition of the cells, TGF-β1 (Peprotech; 20 ng/mL) was added to the plates to induce fibrosis (ref. 1 and 2 above). Wells treated with TGF-β1 and containing DMSO were used as controls. Cells were incubated at 37° C. and 5% CO2 for 4 days. Following incubation for 4 days, SYTOX green nucleic acid stain (Life Technologies [Thermo Fisher Scientific]) was added to the wells at a final concentration of 1 uM and incubated at room temperature for 30 min. Cells were then fixed using 4% formaldehyde (Electron Microscopy Sciences), washed 3 times with PBS followed by blocking and permeabilization using 3% Bovine Serum Albumin (BSA; Sigma) and 0.3% Triton X-100 (Sigma) in PBS. Cells were then stained with antibody specific to α-smooth muscle actin (αSMA; Abcam) (ref. 1 and 2 above) in 3% Bovine Serum Albumin (BSA; Sigma) and 0.3% Triton X-100 (Sigma) in PBS, and incubated overnight at 4° C. Cells were then washed 3 times with PBS, followed by incubation with Alexa Flor-647 conjugated secondary antibody (Life Technologies [Thermo Fisher Scientific]) and DAPI at room temperature for 1 hour. Cells were then washed 3 times with PBS and plates were sealed for imaging. αSMA staining was imaged by excitation at 630 nm and emission at 665 nm and quantified using the Compartmental Analysis program on the CellInsight CX5 (Thermo Scientific). Dead or apoptotic cells were excluded from analysis based on positive SYTOX green staining. % of total cells positive for αSMA were counted in each well and normalized to the average of 11 wells treated with TGF-β1 on the same plate using Dotmatics' Studies Software. The normalized averages (fold change over untreated) of 3 replicate wells for each compound concentration were used to create dose-responses curves and EC50 values were calculated using non-linear regression curve fit in the Dotmatics' Studies Software. The EC50 values are reported.

pEC50, pIC50: −log10 of the molar value.

The pIC50 is the negative decadic logarithm of the IC50, by convention in mol/L. Broadly, the pEC50 is the EC50 on a negative log10 scale, so that one unit is a factor of ten. In assay [1], `Cc1ccncc1-c1cc2c(-c3nc4c(-c5ccsc5)cncc4[nH]3)n[nH]c2cn1` [Compound 239, 5-(4-Methylpyridin-3-yl)-3-(7-(thiophen-3-yl)-3H-imidazo[4,5-c]pyridin-2-yl)-1H-pyrazolo[3,4-c]pyridine] showed a pIC50 of 7.40. The pEC50 in assay [2] was not below 8.05.

With `c1ccc(CNCc2cncc(-c3cc4c(-c5nc6c(-c7ccsc7)cncc6[nH]5)n[nH]c4cn3)c2)cc1` [Compound 257, N-Benzyl-1-(5-(3-(7-(thiophen-3-yl)-3H-imidazo[4,5-c]pyridin-2-yl)-1H-pyrazolo[3,4-c]pyridin-5-yl)pyridin-3-yl)methanamine], in assay [1], the pIC50 is 6.19. Further, in assay [2], the pEC50 is 5.58.

`CCNCc1cncc(-c2cc3c(-c4nc5c(-c6ccoc6)cncc5[nH]4)n[nH]c3cn2)c1` [Compound 266, N-((5-(3-(7-(Furan-3-yl)-3H-imidazo[4,5-c]pyridin-2-yl)-1H-pyrazolo[3,4-c]pyridin-5-yl)pyridin-3-yl)methyl)ethanamine]: the pIC50 in assay [1] is less than 5.00. The negative logarithm of the EC50 (pEC50) in assay [2] is not above 5.00.

The compound `CC(C)Nc1cncc(-c2cc3c(-c4nc5c(-c6ccoc6)cncc5[nH]4)n[nH]c3cn2)c1` [Compound 272, 5-(3-(7-(Furan-3-yl)-3H-imidazo[4,5-c]pyridin-2-yl)-1H-pyrazolo[3,4-c]pyridin-5-yl)-N-isopropylpyridin-3-amine] showed a pIC50 in assay [1] of 7.42. In addition, in assay [2], the negative-log EC50 (pEC50) was not below 8.05.

Regarding `c1cc(-c2cncc3[nH]c(-c4n[nH]c5cnc(-c6cncc(CNCC7CCCC7)c6)cc45)nc23)co1` [Compound 284, 1-Cyclopentyl-N-((5-(3-(7-(furan-3-yl)-3H-imidazo[4,5-c]pyridin-2-yl)-1H-pyrazolo[3,4-c]pyridin-5-yl)pyridin-3-yl)methyl)methanamine], in assay [1], the pIC50 is 6.58. In assay [2], the negative logarithm of the EC50 (pEC50) is 6.04.

In turn, `CN(C)c1cncc(-c2cc3c(-c4nc5c(-c6cccs6)cncc5[nH]4)n[nH]c3cn2)c1` [Compound 293, N,N-Dimethyl-5-(3-(7-(thiophen-2-yl)-3H-imidazo[4,5-c]pyridin-2-yl)-1H-pyrazolo[3,4-c]pyridin-5-yl)pyridin-3-amine] had a pIC50 in assay [1] of 6.50. Also, the pEC50 in assay [2] was not below 8.05.

`CN(C)Cc1cncc(-c2cc3c(-c4nc5c(-c6cccs6)cncc5[nH]4)n[nH]c3cn2)c1` [Compound 299, N,N-Dimethyl-1-(5-(3-(7-(thiophen-2-yl)-3H-imidazo[4,5-c]pyridin-2-yl)-1H-pyrazolo[3,4-c]pyridin-5-yl)pyridin-3-yl)methanamine]: in assay [1], the pIC50 is 6.23. Further, in assay [2], the negative logarithm of the EC50 (pEC50) was not below 8.05.

`O=C(Nc1cncc(-c2cc3c(-c4nc5c(-c6cccs6)cncc5[nH]4)n[nH]c3cn2)c1)C1CC1` [Compound 305, N-(5-(3-(7-(Thiophen-2-yl)-3H-imidazo[4,5-c]pyridin-2-yl)-1H-pyrazolo[3,4-c]pyridin-5-yl)pyridin-3-yl)cyclopropanecarboxamide] gave a pIC50 in assay [1] of 7.45. Also, the pEC50 in assay [2] is less than 5.00.

For `FC1(F)CCN(Cc2cncc(-c3cc4c(-c5nc6c(-c7cccs7)cncc6[nH]5)n[nH]c4cn3)c2)C1` [Compound 311, 5-(5-((3,3-Difluoropyrrolidin-1-yl)methyl)pyridin-3-yl)-3-(7-(thiophen-2-yl)-3H-imidazo[4,5-c]pyridin-2-yl)-1H-pyrazolo[3,4-c]pyridine], the pIC50 in assay [1] was 7.15. Further, the pEC50 in assay [2] was 6.60.

For the compound `Fc1ccc(-c2cncc3[nH]c(-c4n[nH]c5cnc(-c6cncc(CN7CCCC7)c6)cc45)nc23)s1` [Compound 326, 3-(7-(5-Fluorothiophen-2-yl)-3H-imidazo[4,5-c]pyridin-2-yl)-5-(5-(pyrrolidin-1-ylmethyl)pyridin-3-yl)-1H-pyrazolo[3,4-c]pyridine], the pIC50 in assay [1] is 6.11. Further, in assay [2], the pEC50 is not below 8.05.

With `O=C(Nc1cncc(-c2cc3c(-c4nc5c(-c6ccc(F)s6)cncc5[nH]4)n[nH]c3cn2)c1)C1CCC1` [Compound 332, N-(5-(3-(7-(5-Fluorothiophen-2-yl)-3H-imidazo[4,5-c]pyridin-2-yl)-1H-pyrazolo[3,4-c]pyridin-5-yl)pyridin-3-yl)cyclobutanecarboxamide], the pIC50 in assay [1] was 7.48. For the same compound, the negative-log EC50 (pEC50) in assay [2] was 5.98.

Turning to `CCNCc1cncc(-c2cc3c(-c4nc5c(-c6ccc(C)s6)cncc5[nH]4)n[nH]c3cn2)c1` [Compound 344, N-((5-(3-(7-(5-Methylthiophen-2-yl)-3H-imidazo[4,5-c]pyridin-2-yl)-1H-pyrazolo[3,4-c]pyridin-5-yl)pyridin-3-yl)methyl)ethanamine], the pIC50 in assay [1] was 7.60. For the same compound, the pEC50 in assay [2] is 7.22.

The compound `Cc1ccc(-c2cncc3[nH]c(-c4n[nH]c5cnc(-c6cncc(NC(=O)C(C)(C)C)c6)cc45)nc23)s1` [Compound 346, N-(5-(3-(7-(5-Methylthiophen-2-yl)-3H-imidazo[4,5-c]pyridin-2-yl)-1H-pyrazolo[3,4-c]pyridin-5-yl)pyridin-3-yl)pivalamide] showed a pIC50 in assay [1] of 7.77. Further, in assay [2], the negative logarithm of the EC50 (pEC50) is 7.52.

As to `Cc1ccc(-c2cncc3[nH]c(-c4n[nH]c5cnc(-c6cncc(NC(=O)C(C)C)c6)cc45)nc23)s1` [Compound 347, N-(5-(3-(7-(5-Methylthiophen-2-yl)-3H-imidazo[4,5-c]pyridin-2-yl)-1H-pyrazolo[3,4-c]pyridin-5-yl)pyridin-3-yl)isobutyramide], the negative-log IC50 (pIC50) in assay [1] was 8.12. Further, the pEC50 in assay [2] was not below 8.05.

`Cc1ccc(-c2cncc3[nH]c(-c4n[nH]c5cnc(-c6cncc(CN7CCCCC7)c6)cc45)nc23)s1` [Compound 353, 3-(7-(5-Methylthiophen-2-yl)-3H-imidazo[4,5-c]pyridin-2-yl)-5-(5-(piperidin-1-ylmethyl)pyridin-3-yl)-1H-pyrazolo[3,4-c]pyridine] had a pIC50 in assay [1] of 5.98. Also, the pEC50 in assay [2] is 6.60.

Take `CCCC(=O)Nc1cncc(-c2cc3c(-c4nc5c(-c6ccc(C)s6)cncc5[nH]4)n[nH]c3cn2)c1` [Compound 355, N-(5-(3-(7-(5-Methylthiophen-2-yl)-3H-imidazo[4,5-c]pyridin-2-yl)-1H-pyrazolo[3,4-c]pyridin-5-yl)pyridin-3-yl)butyramide]: the pIC50 in assay [1] is 8.19. Also, the negative-log EC50 (pEC50) in assay [2] was 6.83.

In turn, `CCCCC(=O)Nc1cncc(-c2cc3c(-c4nc5c(-c6ccc(C)s6)cncc5[nH]4)n[nH]c3cn2)c1` [Compound 356, N-(5-(3-(7-(5-Methylthiophen-2-yl)-3H-imidazo[4,5-c]pyridin-2-yl)-1H-pyrazolo[3,4-c]pyridin-5-yl)pyridin-3-yl)pentanamide] showed a pIC50 in assay [1] of 7.75. In assay [2], the pEC50 is 6.96.

The compound `Cc1ccc(-c2cncc3[nH]c(-c4n[nH]c5cnc(-c6cncc(NC(=O)C7CCCC7)c6)cc45)nc23)s1` [Compound 359, N-(5-(3-(7-(5-Methylthiophen-2-yl)-3H-imidazo[4,5-c]pyridin-2-yl)-1H-pyrazolo[3,4-c]pyridin-5-yl)pyridin-3-yl)cyclopentanecarboxamide] gave a pIC50 in assay [1] of 7.47. Further, in assay [2], the pEC50 was 6.16.

`Cc1ccncc1-c1cc2c(-c3nc4c(-c5cc(F)cc(CNS(C)(=O)=O)c5)cncc4[nH]3)n[nH]c2cn1` [Compound 395, N-(3-Fluoro-5-(2-(5-(4-methylpyridin-3-yl)-1H-pyrazolo[3,4-c]pyridin-3-yl)-3H-imidazo[4,5-c]pyridin-7-yl)benzyl)methanesulfonamide]: the negative-log IC50 (pIC50) in assay [1] is 7.33. For the same compound, the pEC50 in assay [2] was not below 8.05.

Regarding `CS(=O)(=O)NCc1cc(F)cc(-c2cncc3[nH]c(-c4n[nH]c5cnc(-c6cncc(NC(=O)c7ccccc7)c6)cc45)nc23)c1` [Compound 401, N-(5-(3-(7-(3-Fluoro-5-(methylsulfonamidomethyl)phenyl)-3H-imidazo[4,5-c]pyridin-2-yl)-1H-pyrazolo[3,4-c]pyridin-5-yl)pyridin-3-yl)benzamide], the pIC50 in assay [1] was 6.11. For the same compound, the pEC50 in assay [2] was not above 5.00.

For the origin of these results see patent US10052331B2, “3-(3H-imidazo[4,5-C]pyridin-2-yl)-1H-pyrazolo[3,4-C]pyridine and therapeutic uses thereof” (Samumed, LLC, priority 2014, dated 2018).
